Assay in all cases: kinobeads assay with mass spectrometry detection of kinases (kinase selectivity profile)
What all share (format): binding

Experiment [1] addresses T1, kinases (kinome) (Homo sapiens, UniProt P07947).
T1 construct: determined in kinobeads assays with mass spectrometry detection of kinases as described previously; endogenous in cells; host or cells: cell lysate
Particulars: YES (TK), IPI00013981. From the text:
(§1) The protein kinase complement of the human genome (the kinome) was described previously (Manning et al., 2002. Science 298(5600):1912-1934). Sequence accession numbers are defined by the International Protein Index (IPI) (Kersey et al., 2004. Proteomics 4(7):1985-1988).

For experiment [2], the target named is T2, kinases (kinome) (Homo sapiens, UniProt P42345).
T2 construct: determined in kinobeads assays with mass spectrometry detection of kinases as described previously; endogenous in cells; host or cells: cell lysate
As to conditions: mTOR (Atypical), IPI00031410; 0.1 μM ranges.
Description: as §1

For experiment [3], the target named is T3, kinases (kinome) (Homo sapiens, UniProt P42680).
T3 construct: determined in kinobeads assays with mass spectrometry detection of kinases as described previously; endogenous in cells; host or cells: cell lysate
T3 sequence (P42680 1-631): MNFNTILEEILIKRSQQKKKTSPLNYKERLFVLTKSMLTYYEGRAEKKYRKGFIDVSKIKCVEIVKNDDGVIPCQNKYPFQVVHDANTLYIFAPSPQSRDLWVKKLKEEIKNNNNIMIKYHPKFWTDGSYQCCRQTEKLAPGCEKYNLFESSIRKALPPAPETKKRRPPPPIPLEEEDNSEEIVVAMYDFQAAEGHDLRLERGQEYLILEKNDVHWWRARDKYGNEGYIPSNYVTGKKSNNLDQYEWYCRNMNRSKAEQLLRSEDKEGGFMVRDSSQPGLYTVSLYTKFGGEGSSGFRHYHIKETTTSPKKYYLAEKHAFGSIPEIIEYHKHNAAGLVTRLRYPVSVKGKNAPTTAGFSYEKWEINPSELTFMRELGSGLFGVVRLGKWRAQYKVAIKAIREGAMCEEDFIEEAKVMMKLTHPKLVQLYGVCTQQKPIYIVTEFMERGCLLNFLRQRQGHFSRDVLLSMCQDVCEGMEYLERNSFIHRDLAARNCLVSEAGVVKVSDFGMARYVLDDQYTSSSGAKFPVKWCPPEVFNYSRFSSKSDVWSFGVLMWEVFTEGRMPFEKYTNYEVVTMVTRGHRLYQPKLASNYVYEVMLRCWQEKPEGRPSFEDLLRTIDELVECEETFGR
Particulars: TEC (TK), IPI00000878.
Description: as §1

Experiment [4] has as its target T4, kinases (kinome) (Homo sapiens, UniProt Q00534).
T4 construct: determined in kinobeads assays with mass spectrometry detection of kinases as described previously; endogenous in cells; host or cells: cell lysate
As to conditions: CDK6 (CMGC), IPI00023529.
Description: as §1

The target in experiment [5] is T5, kinases (kinome) (Homo sapiens, UniProt Q04771).
T5 construct: determined in kinobeads assays with mass spectrometry detection of kinases as described previously; endogenous in cells; host or cells: cell lysate
T5 sequence (Q04771 21-509): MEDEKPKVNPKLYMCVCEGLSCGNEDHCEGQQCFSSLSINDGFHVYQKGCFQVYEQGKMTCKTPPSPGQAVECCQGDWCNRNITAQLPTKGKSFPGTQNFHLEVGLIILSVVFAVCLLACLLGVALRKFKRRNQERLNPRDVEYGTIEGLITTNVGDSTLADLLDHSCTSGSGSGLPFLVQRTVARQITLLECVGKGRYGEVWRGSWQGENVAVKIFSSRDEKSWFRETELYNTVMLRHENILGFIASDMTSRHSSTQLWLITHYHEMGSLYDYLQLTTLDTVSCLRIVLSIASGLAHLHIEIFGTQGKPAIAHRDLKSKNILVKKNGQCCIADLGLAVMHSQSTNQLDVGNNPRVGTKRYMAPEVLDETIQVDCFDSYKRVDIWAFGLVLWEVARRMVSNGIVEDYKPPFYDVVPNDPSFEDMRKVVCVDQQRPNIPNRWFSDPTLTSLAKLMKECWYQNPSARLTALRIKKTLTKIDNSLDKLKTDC
Particulars: ALK2 (TKL), IPI00029219.
Description: as §1

Experiment [6] has as its target T6, kinases (kinome) (Homo sapiens, UniProt Q14164).
T6 construct: determined in kinobeads assays with mass spectrometry detection of kinases as described previously; endogenous in cells; host or cells: cell lysate
T6 sequence (Q14164 1-716): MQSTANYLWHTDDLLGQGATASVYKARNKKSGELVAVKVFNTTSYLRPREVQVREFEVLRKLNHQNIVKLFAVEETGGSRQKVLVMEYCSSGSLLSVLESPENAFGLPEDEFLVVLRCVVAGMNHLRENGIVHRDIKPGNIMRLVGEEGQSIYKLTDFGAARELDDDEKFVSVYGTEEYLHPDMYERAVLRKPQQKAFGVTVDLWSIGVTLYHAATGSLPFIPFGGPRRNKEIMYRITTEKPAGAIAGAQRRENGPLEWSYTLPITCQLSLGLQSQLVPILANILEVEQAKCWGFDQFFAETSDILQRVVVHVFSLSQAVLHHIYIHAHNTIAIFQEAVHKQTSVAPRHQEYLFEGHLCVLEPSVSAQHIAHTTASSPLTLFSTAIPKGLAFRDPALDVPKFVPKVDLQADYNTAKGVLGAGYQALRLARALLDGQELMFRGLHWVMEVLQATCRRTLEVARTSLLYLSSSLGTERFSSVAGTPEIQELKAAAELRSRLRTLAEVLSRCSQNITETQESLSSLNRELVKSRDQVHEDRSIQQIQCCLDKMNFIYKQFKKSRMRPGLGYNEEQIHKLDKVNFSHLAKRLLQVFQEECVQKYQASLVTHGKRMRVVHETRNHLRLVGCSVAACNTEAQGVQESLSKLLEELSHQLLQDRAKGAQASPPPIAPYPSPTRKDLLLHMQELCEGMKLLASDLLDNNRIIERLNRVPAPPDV
As to conditions: IKKe (Other), IPI00029045.
Description: as §1

Experiment [7] has as its target T7, kinases (kinome) (Homo sapiens, UniProt Q2M2I8).
T7 construct: determined in kinobeads assays with mass spectrometry detection of kinases as described previously; endogenous in cells; host or cells: cell lysate
As to conditions: AAK1 (Other), IPI00916402.
Description: as §1

The target of experiment [8] is T8, kinases (kinome) (Homo sapiens, UniProt Q9BQI3).
T8 construct: determined in kinobeads assays with mass spectrometry detection of kinases as described previously; endogenous in cells; host or cells: cell lysate
T8 sequence (Q9BQI3 whole entry): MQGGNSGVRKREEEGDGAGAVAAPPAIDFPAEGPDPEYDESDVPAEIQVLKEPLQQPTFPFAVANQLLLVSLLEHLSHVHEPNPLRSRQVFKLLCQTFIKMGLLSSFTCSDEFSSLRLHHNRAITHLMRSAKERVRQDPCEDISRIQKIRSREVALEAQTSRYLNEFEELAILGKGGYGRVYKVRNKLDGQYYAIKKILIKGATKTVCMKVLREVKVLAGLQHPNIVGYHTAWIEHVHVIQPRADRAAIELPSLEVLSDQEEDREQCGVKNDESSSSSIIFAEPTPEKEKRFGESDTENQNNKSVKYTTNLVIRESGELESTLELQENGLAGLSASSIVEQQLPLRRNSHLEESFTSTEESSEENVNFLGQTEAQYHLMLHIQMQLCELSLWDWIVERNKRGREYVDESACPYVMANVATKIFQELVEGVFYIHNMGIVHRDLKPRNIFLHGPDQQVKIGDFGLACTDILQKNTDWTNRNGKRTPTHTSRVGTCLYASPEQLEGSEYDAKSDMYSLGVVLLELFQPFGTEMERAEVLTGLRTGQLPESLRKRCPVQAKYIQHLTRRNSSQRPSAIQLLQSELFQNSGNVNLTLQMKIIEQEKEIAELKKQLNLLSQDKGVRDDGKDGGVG
As to conditions: HRI (Other), IPI00328149.
Description: as §1

For experiment [9], the target named is T9, kinases (kinome) (Homo sapiens, UniProt Q9Y2K2).
T9 construct: determined in kinobeads assays with mass spectrometry detection of kinases as described previously; endogenous in cells; host or cells: cell lysate
T9 sequence (Q9Y2K2 whole entry): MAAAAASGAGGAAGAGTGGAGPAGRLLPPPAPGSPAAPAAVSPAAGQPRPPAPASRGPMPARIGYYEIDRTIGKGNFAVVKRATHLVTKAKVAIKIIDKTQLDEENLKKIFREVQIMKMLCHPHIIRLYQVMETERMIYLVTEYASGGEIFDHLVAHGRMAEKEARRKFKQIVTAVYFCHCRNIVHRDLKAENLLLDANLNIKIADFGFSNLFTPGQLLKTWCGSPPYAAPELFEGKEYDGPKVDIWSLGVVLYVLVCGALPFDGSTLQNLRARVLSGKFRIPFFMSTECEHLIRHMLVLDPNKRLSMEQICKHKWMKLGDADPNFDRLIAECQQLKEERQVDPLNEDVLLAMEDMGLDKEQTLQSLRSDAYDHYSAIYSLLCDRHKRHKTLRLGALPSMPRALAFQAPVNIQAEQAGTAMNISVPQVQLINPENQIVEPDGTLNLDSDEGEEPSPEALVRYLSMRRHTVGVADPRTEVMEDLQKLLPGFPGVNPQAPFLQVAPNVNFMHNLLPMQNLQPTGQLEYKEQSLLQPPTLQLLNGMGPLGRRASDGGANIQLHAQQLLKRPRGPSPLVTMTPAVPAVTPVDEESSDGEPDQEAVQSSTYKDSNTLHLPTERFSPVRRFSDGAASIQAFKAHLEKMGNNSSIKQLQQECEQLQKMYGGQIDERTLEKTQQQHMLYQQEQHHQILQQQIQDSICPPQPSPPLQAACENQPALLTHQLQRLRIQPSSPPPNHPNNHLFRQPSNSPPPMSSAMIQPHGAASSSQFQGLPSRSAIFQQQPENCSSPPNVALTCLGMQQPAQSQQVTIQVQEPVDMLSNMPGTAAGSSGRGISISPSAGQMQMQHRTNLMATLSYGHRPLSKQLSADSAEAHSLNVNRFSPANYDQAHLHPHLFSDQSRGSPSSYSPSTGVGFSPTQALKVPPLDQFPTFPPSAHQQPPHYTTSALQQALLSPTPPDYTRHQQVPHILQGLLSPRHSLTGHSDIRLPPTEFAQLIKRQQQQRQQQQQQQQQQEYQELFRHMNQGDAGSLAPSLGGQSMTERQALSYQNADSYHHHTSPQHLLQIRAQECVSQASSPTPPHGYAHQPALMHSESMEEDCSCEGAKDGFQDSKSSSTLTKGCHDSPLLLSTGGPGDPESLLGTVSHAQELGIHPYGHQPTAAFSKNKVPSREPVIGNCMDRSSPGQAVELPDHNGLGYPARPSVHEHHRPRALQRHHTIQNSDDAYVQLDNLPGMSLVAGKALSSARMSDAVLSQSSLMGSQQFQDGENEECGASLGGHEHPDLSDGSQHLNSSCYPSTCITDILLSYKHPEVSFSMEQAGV
Particulars: QSK (CAMK), IPI00657720.
Description: as §1

As usually defined, the pIC50 is −log10 of the IC50, conventionally taken in molar units.

pIC50: −log10 of the molar value.

T7 sequence (Q2M2I8 whole entry): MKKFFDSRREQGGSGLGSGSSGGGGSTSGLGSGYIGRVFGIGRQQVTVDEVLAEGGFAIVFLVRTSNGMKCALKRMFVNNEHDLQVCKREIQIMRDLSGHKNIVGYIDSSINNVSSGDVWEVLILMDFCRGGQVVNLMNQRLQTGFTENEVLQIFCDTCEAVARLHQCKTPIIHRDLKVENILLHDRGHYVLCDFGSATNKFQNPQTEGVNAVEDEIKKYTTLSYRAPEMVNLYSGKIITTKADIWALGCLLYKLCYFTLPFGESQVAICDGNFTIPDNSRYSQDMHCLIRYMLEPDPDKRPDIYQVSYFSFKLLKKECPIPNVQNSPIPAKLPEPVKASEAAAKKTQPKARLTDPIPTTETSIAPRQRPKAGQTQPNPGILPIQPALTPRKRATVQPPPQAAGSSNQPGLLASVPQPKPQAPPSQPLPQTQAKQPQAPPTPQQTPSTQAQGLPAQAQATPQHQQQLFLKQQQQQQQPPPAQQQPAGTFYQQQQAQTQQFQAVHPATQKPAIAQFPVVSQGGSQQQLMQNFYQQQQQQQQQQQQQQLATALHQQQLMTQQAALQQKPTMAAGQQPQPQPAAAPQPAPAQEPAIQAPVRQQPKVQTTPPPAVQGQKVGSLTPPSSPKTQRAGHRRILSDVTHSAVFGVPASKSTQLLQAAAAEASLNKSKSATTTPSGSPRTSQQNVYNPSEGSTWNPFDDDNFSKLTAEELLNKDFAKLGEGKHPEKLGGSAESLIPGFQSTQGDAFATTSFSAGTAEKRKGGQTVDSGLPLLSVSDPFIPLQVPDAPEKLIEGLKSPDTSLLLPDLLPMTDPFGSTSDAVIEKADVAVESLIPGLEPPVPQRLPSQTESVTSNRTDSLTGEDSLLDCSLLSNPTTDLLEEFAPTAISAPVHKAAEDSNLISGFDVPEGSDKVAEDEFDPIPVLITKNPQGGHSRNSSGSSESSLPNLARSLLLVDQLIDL
T4 sequence (Q00534 whole entry): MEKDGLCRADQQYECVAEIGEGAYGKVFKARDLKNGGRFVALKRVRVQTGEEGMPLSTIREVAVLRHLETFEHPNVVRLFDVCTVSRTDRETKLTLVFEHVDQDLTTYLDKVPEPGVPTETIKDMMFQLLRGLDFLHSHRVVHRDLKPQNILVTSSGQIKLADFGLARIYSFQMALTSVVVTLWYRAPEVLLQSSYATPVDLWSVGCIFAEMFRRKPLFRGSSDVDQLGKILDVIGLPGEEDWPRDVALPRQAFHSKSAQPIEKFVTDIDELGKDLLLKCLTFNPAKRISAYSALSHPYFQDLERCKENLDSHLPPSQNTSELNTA
T1 sequence (P07947 whole entry): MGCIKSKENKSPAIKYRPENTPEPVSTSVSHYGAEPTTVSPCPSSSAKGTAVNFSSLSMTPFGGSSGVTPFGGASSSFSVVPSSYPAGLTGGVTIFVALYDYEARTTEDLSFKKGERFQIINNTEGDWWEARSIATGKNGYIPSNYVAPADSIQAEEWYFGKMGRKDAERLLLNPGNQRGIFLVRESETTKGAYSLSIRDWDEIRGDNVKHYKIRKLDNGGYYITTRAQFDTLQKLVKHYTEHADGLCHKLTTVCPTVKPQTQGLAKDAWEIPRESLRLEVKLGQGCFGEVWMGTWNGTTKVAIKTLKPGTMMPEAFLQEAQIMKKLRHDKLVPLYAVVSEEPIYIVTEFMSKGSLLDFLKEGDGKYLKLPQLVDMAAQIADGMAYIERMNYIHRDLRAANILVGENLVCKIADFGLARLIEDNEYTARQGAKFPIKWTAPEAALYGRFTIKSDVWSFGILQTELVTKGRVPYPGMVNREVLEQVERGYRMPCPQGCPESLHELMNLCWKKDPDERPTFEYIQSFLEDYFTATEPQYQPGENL

On to `C[C@H]1COCCN1c1nc(-c2ccc(NC(=O)N[C@H]3CCC[C@@H]3O)cc2)cc(-c2cc(F)ccc2S(C)(=O)=O)n1` [Example 76, 1-(4-(6-(5-fluoro-2-(methylsulfonyl)phenyl)-2-((S)-3-methylmorpholino)pyrimidin-4-yl)phenyl)-3-((1S,2S)-2-hydroxycyclopentyl)urea], for which the pIC50 in experiment [1] is below 5.00; in [2], 6.70 to 7.00; in experiment [3], below 5.00; in experiment [4] it was below 5.00; in [5] it was below 5.00; in experiment [6], below 5.00. Moreover, the negative-log IC50 (pIC50) in experiment [7], in [8] and in [9] was below 5.00 each time.
For the compound `C[C@H]1COCCN1c1nc(-c2ccc(NC(=O)NC3CC3)cc2)cc(-c2ccccc2S(C)(=O)=O)n1` [Example 4, (S)-1-cyclopropyl-3-(4-(2-(3-methylmorpholino)-6-(2-(methylsulfonyl)phenyl)pyrimidin-4-yl)phenyl)urea], the pIC50 in experiment [1] was below 5.00; in [2] it was 6.40 to 6.52; in experiment [3], below 5.00; in experiment [4], below 5.00; in experiment [5] it was below 5.00; in experiment [6], below 5.00. Moreover, the pIC50 in experiment [7], in experiment [8] and in [9] was below 5.00 each time.
Take `C[C@H]1COCCN1c1cc(-c2ccccc2S(C)(=O)=O)nc(-c2ccc(NC(=O)NC3CC3)cc2)n1` [Example 6, (S)-1-cyclopropyl-3-(4-(4-(3-methylmorpholino)-6-(2-(methylsulfonyl)phenyl)pyrimidin-2-yl)phenyl)urea]: the pIC50 is below 5.00 in experiment [1]; 6.70 to 7.00 in [2]; below 5.00 in experiment [3]; below 5.00 in experiment [4]; below 5.00 in [5]; below 5.00 in experiment [6]. The pIC50 in [7] and in experiment [9] was below 5.00 each time.
Regarding `C[C@H]1COCCN1c1cc(-c2ccccn2)nc(-c2ccc(NC(=O)NCCO)cc2)n1` [Example 43, (S)-1-(2-hydroxyethyl)-3-(4-(4-(3-methylmorpholino)-6-(pyridin-2-yl)pyrimidin-2-yl)phenyl)urea], the pIC50 is below 5.00 in experiment [1]; 6.70 to 7.00 in experiment [2]; below 5.00 in [3]; below 5.00 in [4]; below 5.00 in experiment [5]; below 5.00 in experiment [6]. For the same compound, the pIC50 in experiment [7], in [8] and in experiment [9] was below 5.00 in each case.
With `C[C@H]1COCCN1c1nc(-c2ccc(NC(=O)NC3CC3)cc2)cc(-c2cccnc2S(C)(=O)=O)n1` [Example 46, (S)-1-cyclopropyl-3-(4-(2-(3-methylmorpholino)-6-(2-(methylsulfonyl)pyridin-3-yl)pyrimidin-4-yl)phenyl)urea], the pIC50 in [1] was below 5.00; in [2], 6.52 to 6.70; in experiment [3] it was below 5.00; in [4] it was below 5.00; in experiment [5] it was below 5.00; in experiment [6], below 5.00. The pIC50 in [7], in experiment [8] and in experiment [9] was below 5.00 each time.
On to `CCNC(=O)Nc1ccc(-c2cc(-c3ccccc3C#N)nc(N3CCOC[C@@H]3C)n2)cc1` [Example 8, (S)-1-(4-(6-(2-cyanophenyl)-2-(3-methylmorpholino)pyrimidin-4-yl)phenyl)-3-ethylurea], for which the pIC50 in [1] is below 5.00; in [2], 6.70 to 7.00; in [3], below 5.00; in [5], below 5.00; in experiment [6] it was below 5.00; in [7] it was below 5.00. Also, the pIC50 in [8] and in [9] was below 5.00 throughout.
For `C[C@H]1COCCN1c1nc(-c2ccc(NC(=O)NC3CC3)cc2)cc(-c2cc(F)ccc2S(C)(=O)=O)n1` [Example 40, (S)-1-cyclopropyl-3-(4-(6-(5-fluoro-2-(methylsulfonyl)phenyl)-2-(3-methylmorpholino)pyrimidin-4-yl)phenyl)urea], the pIC50 is below 5.00 in [1]; 6.70 to 7.00 in [2]; below 5.00 in [3]; below 5.00 in experiment [4]; below 5.00 in [5]; below 5.00 in [6]. The negative-log IC50 (pIC50) in [7], in [8] and in experiment [9] was below 5.00 throughout.

Source of the values: patent US9249129B2, “Morpholino substituted urea derivatives as mTOR inhibitors” (CELLZOME LIMITED, priority 2010, dated 2016).
